# Measurements reported in US12558342B2, “2-[2-({12,12-dimethyl-4-oxo-6-phenyl-3,11-dioxatricyclo[8.4.0.0,2,7]tetradeca-1,5,7,9-tetraen-8-yl}oxy)acetamido]benzamide and derivatives as inhibitor of clock:bmal1 interaction for the treatment of circadian rhythm diseases and disorders” (KOC UNIVERSITESI, priority 2019, dated 2026).
# Tests used:
# NAV2 = biological target: T1, NAV2 (Homo sapiens, UniProt Q8IVL1); experiment: LC-MS/MS of pull-down precipitates, NAV2; type: binding; conditions: Competitor 0 μM
# T1 construct: endogenous in cells; host or cells: HEK 293T
# Protocol: (§1) HEK293T cells were transiently transfected with tag-free hsClock and mBmal1. After 48 hours of transfection, cells were harvested and whole cell lysate was prepared with ice-cold lysis buffer (50 mM Tris-HCl pH 7.4, 2 mM EDTA, 1 mM MgCl2, 0.2% NP-40, 1 mM sodium orthovanadate, 1 mM sodium fluoride and protease inhibitor cocktail) followed by centrifugation at 7000×g at 4° C. for 10 minutes. Lysate was diluted with ice-cold 2× binding buffer (100 mM Tris-HCl pH 7.4, 300 mM NaCl, 0.2% NP-40, 2 mM sodium orthovanadate, 2 mM sodium fluoride, and protease inhibitor cocktail) 27. The lysate was divided into three fractions to be treated with either DMSO, or 20 μM of bitoinylated-CLK8 (bait) with or without 200 μM CLK8 (competitor). […]
# (§2) The next step was to check for off-targets of CLK8. […] Since the amount of precipitated endogenous CLOCK was insufficient to be detected in LC-MS/MS, whole cell lysate of HEK 293T cells overexpressing CLOCK and BMAL1 were used for LC-MS/MS. We determined proteins that potentially bind to CLK8 by utilizing a minimum threshold for peptide spectrum matches and coverage equal to those of the main target, CLOCK. We also excluded proteins that have been detected in negative controls of the CRAPome database (32), assuming them as abundant sticky proteins. […] BMAL1 was detected in lower amounts when a competitor was present. […]
# CLOCK = biological target: T2, CLOCK (Homo sapiens, UniProt O15516); experiment: LC-MS/MS of pull-down precipitates, CLOCK; type: binding; design: expressed in transfected cells; host or cells: HEK293T
# T2 sequence (O15516 1-846): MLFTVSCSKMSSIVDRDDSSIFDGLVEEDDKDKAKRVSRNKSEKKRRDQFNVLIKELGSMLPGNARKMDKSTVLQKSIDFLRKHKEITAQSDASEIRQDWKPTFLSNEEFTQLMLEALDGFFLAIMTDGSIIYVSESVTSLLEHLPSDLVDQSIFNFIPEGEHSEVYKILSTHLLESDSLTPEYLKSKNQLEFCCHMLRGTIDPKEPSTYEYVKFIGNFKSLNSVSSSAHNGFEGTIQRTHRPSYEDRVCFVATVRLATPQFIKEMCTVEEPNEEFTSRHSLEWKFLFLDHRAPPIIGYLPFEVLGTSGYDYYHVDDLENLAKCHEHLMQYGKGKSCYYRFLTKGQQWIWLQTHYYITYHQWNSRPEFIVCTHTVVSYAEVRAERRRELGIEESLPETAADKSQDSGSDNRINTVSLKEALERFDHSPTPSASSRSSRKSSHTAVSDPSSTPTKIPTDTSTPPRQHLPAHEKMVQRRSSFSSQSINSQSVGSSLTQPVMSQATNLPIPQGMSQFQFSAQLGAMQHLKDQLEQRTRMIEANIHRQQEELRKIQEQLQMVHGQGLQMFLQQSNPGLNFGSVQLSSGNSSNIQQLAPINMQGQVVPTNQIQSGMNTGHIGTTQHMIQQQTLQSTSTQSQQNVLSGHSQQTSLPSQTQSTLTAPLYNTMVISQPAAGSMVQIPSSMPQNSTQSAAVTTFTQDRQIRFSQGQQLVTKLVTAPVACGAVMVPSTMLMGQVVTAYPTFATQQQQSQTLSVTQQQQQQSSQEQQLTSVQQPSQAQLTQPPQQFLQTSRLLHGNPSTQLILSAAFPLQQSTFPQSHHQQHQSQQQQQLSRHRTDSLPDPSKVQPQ
# Protocol: as §1, §2
# T1 sequence (Q8IVL1 whole entry): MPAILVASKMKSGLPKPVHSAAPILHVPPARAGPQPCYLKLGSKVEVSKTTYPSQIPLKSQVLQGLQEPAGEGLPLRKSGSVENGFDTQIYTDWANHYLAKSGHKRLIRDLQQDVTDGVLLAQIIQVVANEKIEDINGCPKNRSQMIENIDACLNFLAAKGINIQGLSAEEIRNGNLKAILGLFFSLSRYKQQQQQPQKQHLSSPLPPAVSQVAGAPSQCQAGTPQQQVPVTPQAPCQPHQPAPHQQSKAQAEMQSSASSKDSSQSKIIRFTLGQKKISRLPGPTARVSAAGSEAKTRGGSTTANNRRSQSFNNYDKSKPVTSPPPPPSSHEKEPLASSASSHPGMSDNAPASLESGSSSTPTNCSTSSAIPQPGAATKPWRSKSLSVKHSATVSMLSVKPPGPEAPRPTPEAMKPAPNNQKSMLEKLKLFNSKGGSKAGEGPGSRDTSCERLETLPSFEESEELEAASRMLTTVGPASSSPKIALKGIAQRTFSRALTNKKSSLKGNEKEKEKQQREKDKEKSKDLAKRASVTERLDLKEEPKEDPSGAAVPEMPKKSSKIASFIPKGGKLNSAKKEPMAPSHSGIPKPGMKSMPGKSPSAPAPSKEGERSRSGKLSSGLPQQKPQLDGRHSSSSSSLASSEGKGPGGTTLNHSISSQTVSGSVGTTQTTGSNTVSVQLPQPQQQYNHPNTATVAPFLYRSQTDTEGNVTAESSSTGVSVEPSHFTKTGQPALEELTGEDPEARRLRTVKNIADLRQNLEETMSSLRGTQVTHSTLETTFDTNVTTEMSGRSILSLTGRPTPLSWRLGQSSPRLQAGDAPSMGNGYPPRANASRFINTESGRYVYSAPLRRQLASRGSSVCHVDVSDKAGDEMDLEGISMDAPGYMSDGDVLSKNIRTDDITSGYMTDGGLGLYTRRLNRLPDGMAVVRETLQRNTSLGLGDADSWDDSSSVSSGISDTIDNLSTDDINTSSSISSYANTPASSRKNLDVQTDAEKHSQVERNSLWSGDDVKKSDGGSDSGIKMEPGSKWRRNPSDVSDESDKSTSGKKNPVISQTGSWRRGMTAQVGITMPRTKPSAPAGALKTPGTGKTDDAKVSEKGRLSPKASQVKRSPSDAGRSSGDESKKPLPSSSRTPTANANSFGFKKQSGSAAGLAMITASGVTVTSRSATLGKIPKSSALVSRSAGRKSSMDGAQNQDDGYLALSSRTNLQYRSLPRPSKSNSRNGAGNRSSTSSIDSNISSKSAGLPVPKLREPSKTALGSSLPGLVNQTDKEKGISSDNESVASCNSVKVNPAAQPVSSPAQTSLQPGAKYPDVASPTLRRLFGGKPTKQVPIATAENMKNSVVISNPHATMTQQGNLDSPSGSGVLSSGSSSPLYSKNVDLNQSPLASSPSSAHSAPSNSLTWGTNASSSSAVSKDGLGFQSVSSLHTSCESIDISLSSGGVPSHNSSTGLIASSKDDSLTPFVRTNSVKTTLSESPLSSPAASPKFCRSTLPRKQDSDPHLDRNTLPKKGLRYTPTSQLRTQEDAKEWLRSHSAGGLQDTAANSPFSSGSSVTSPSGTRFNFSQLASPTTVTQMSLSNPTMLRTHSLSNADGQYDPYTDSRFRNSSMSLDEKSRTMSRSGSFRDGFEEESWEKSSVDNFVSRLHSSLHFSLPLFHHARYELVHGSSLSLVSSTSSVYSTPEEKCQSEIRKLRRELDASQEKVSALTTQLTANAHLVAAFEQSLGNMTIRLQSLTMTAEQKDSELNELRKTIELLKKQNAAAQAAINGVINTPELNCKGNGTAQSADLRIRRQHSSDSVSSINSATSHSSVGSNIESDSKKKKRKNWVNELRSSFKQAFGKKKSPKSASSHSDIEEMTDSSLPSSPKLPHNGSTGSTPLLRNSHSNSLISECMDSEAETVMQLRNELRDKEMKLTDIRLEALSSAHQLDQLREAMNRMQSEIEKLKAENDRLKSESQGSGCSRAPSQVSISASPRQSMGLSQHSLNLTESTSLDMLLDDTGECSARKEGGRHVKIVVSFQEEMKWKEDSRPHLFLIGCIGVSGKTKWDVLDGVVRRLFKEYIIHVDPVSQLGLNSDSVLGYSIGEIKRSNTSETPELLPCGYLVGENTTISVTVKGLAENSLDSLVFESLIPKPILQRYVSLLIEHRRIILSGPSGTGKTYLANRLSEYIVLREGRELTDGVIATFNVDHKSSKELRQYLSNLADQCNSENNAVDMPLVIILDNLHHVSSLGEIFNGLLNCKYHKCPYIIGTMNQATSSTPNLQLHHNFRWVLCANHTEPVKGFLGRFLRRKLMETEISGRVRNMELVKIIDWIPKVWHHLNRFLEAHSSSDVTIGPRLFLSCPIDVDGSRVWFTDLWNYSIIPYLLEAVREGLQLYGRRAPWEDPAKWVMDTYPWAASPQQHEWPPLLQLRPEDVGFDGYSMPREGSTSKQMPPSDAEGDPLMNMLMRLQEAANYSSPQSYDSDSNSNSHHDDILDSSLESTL
smiles,measurement,setting,value
"CC1(C)CCc2c(cc(OCC(=O)Nc3ccccc3C(N)=O)c3c(-c4ccccc4)cc(=O)oc23)O1 [CLK8, 2-[2-({12,12-dimethyl-4-oxo-6-phenyl-3,11-dioxatricyclo [8.4.0.0,2,7]tetradeca-1,5,7,9-tetraen-8-yl}oxy)acetamido] benzamide]","Peptide spectrum matches, NAV2",NAV2,263
same,"Peptide spectrum matches, CLOCK",CLOCK; Competitor 0 μM,42
same,"Peptide spectrum matches, CLOCK",CLOCK; Competitor 200 μM,not detected
